Laboratory results from US20140079717A1, “Compositions and Methods to Prevent Cell Transformation and Cancer Metastasis” (CORNELL UNIVERSITY, priority 2011, published 2014).

Columns and labels:
[1] = system: NIH3T3 fibroblasts; experiment: Anchorage-independent growth assay (soft agar) on NIH3T3 fibroblasts incubated with MVs; type: cell-based; conditions: NIH3T3 cells, U87 cell-derived MVs treated with AG1478
Procedure: FIG. 21. Anchorage-independent growth assays were performed on fibroblasts incubated with MDAMB231 cell-derived MVs treated without or with T101, the RGD-peptide, or the control RGE-peptide. Data represents the mean±s.d. from at least three independent experiments.
FIG. 34. MDAMB231 cell-derived MVs transform recipient MCF10A mammary epithelial cells. Anchorage-independent growth assays were performed on NIH3T3 fibroblasts incubated with U87 cell-derived MVs treated without or with the EGF receptor inhibitor AG1478. The culturing medium (including the MVs, T101, and AG1478) for the soft agar assays performed was replenished every third day for 12 days, at which time the colonies that formed were counted. […]
Parental NIH3T3 cells or MCF10A cells incubated without or with MVs derived from 5.0×10^6 MDAMB231 cells or U87 cells, or NIH3T3 cells stably overexpressing the vector-control, wild-type tTG, or Cdc42 F28L, were plated at a density of 7×10^3 cells/ml in medium containing 0.3% agarose, without or with various inhibitors as indicated, onto underlays composed of growth medium containing 0.6% agarose in six-well dishes. The soft agar cultures were re-fed (including the addition of freshly prepared MVs and treatments with various inhibitors as indicated) every third day for 12 days, at which time the colonies that formed were counted. […]

[2] = system: MDAMB231 cells; experiment: Shedding of MVs by MDAMB231 cells, immunoblot of flotillin-2 and tTG in MV lysates; type: cell-based, human; conditions: MDAMB231 cells treated with inhibitor
From the text: FIG. 39. Serum-starved MDAMB231 cells treated without or with the tTG inhibitors T101 and MDC (left panel), transfected with either control siRNA (siCont) or two distinct tTG siRNAs (siTG-1 and siTG-2) (middle panel), or treated without or with the inhibitors of classical secretion, BFA and Exo1 (right panel), were lysed (WCLs) and the MVs released into the medium by the cells were also collected and lysed. The extracts were immunoblotted with antibodies against tTG, the MV-marker flotillin-2, and the cytosolic-specific-marker IκBα.
For each of the experiments that used MV preparations, the conditioned medium from 5.0×10^6 serum-starved MDAMB231 cells or U87 cells (which is the equivalent of two nearly confluent 150 MM dishes of either of these cell lines) were collected and the MVs isolated from the medium as previously described. […]
The protein concentrations of the whole cell lysates (WCLs) were determined using the Bio-Rad DC protein assay, while the MV lysates were normalized for comparison by isolating them from the conditioned medium of 5.0×10^6 serum-starved MDAMB231 cells or U87 cells for each of the experimental conditions assayed, and then lysing in 250 μl of cell lysis buffer. […] The primary antibodies were detected with horseradish peroxidase-conjugated secondary antibodies (Amersham Biosciences) followed by exposure to ECL reagent.

[3] = system: MDAMB231 cells; experiment: MV formation by MDAMB231 cells, immunofluorescence with tTG antibody; type: cell-based, human; conditions: serum-starved MDAMB231 cells treated with inhibitor
Procedure: FIG. 38. Serum-starved MDAMB231 cells treated without or with T101, MDC, BFA, or Exo1, were immuno-stained with a tTG antibody. Shown are representative images of the cells exposed to the various inhibitors. Cells forming MVs are denoted with arrows.
(§1) The MDAMB231, U87, MCF10A, and HeLa cell lines were grown in RPMI 1640 medium containing 10% fetal bovine serum, while the NIH3T3 cell line was grown in DMEM medium containing 10% calf serum. Expression constructs were transfected into cells using Lipofectamine, whereas the control and tTG siRNAs were introduced into cells with Lipofectamine 2000. As indicated, cells were incubated with serum-free medium containing combinations of 0.1 μg/ml EGF, 100 μM MDC, 10 μM T101, 10 μM BFA, and 10 μM Exo1. To mitotically arrest MDAMB231 cells, plates of cells were treated with 10 μg/ml mitomycin-C for 2 hours, before rinsing the solution away and allowing the cells to recover in growth medium (RPMI-1640 medium containing 10% FBS) for a day.
Cells were fixed with 3.7% paraformaldehyde and then some samples were permeabilized with phosphate-buffered saline (PBS) containing 0.1% Triton X-100. Permeabilized and non-permeabilized samples were incubated with a tTG antibody, and then incubated with Oregon green 488-conjugated secondary antibody. Rhodamine-conjugated phalloidin was used to stain actin and DAPI was used to stain nuclei. The cells were visualized by fluorescent microscopy and the images were captured and processed using IPLABS.

[4] = system: NIH3T3 fibroblasts stably overexpressing Myc-tagged tTG; experiment: Cell death assay on NIH3T3 fibroblasts stably overexpressing Myc-tTG; type: cell-based; conditions: serum-free medium, cells treated with MDC
Procedure: FIG. 23. Cell death assays were performed on the NIH3T3 stable cell lines maintained in serum-free medium that was treated with T101, MDC, or 2% CS-medium, or was untreated. Data represents the mean±s.d. from at least three independent experiments.
NIH3T3 cells or MCF10A cells were plated in each well of a 6-well dish and then cultured in medium containing 2% CS or serum-free medium supplemented without or with MVs derived from 5.0×10^6 MDAMB231 cells or U87 cells, and without or with MDC or T101, as indicated. Two days later the cultures were fixed and stained with DAPI for viewing by fluorescence microscopy. Cells undergoing apoptosis were identified by nuclear condensation or blebbing and the percentage of cell death was determined by calculating the ratio of apoptotic to total cells for each condition. These experiments were conducted at least three times and the results from each experiment were averaged together and graphed.

[5] = biological target: T1, tTG (Homo sapiens, UniProt P21980); experiment: Transamidation activity of intact MDAMB231 cell-derived MVs (incorporation of BPA into casein); type: biochemical; conditions: pre-treatment of intact MDAMB231 cell-derived MVs with inhibitor
T1 construct: endogenous in cells; host or cells: microvesicles shed by serum-starved MDAMB231 (and U87) cells
T1 sequence (P21980 1-687): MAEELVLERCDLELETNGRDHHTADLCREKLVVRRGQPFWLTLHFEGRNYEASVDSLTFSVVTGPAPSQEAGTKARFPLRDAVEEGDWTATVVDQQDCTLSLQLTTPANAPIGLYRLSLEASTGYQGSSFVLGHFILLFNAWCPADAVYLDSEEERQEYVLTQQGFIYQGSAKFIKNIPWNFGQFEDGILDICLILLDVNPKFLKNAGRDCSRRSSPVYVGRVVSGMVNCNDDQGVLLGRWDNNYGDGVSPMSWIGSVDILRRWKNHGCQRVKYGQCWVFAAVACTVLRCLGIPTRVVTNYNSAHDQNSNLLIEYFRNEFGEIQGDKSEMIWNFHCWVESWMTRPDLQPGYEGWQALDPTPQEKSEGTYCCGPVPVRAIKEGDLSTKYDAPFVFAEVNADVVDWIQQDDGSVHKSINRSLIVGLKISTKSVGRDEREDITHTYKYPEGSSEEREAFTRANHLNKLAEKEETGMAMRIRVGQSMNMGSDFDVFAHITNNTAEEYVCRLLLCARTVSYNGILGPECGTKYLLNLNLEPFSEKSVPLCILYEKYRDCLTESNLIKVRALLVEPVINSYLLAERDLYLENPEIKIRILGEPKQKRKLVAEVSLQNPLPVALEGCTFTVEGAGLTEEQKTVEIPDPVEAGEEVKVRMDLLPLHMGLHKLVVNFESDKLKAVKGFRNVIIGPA
Procedure: FIG. 17. Whole cell lysates (WCLs) of serum-starved MDAMB231 cells, as well as intact MVs generated by these cells treated without or with the tTG inhibitors T101 (cell-impermeable) or MDC (cell-permeable), were assayed for transamidation activity as readout by the incorporation of BPA into casein. The samples were then immunoblotted with antibodies against tTG, flotillin-2, and IκBα.
The transamidation activity in whole cell extracts was readout by the incorporation of BPA into lysate proteins as previously described, whereas the transamidation activity of recombinant tTG (0.1 μM) exposed to increasing concentrations of T101 was determined using a spectrophotometric assay. The transamidation activity associated with MVs was readout by incubating equal amounts (75 μl) of each MV sample in a buffer containing 40 mM N′N-dimethyl casein, 2 mM BPA, 40 mM CaCl2, and 40 mM dithiothreitol for 15 minutes. The reaction was stopped by the addition of Laemmli sample buffer followed by boiling. The reactions were then resolved by SDS-PAGE and the proteins transferred to polyvinylidene difluoride membranes. […]

[6] = system: MDAMB231 cells; experiment: Tumor formation assay in nude mice; type: in vivo; conditions: cells exposed to mitomycin-C before subcutaneous injection into nude mice
Procedure: FIG. 25. Tumor formation assays were performed in which 5×10^5 mitotically-arrested (using mitomycin-C) MDAMB231 cells (denoted as Mito-C-MDAMB231) expressing either control siRNA (siCont) or tTG siRNAs (denoted as siTG-1 or siTG-2) were subcutaneously injected singly, or combined with 5×10^5 NIH3T3 fibroblasts, into nude mice. As controls, untreated MDAMB231 and NIH3T3 cells were injected into nude mice.
The MDAMB231, U87, MCF10A, and HeLa cell lines were grown in RPMI 1640 medium containing 10% fetal bovine serum, while the NIH3T3 cell line was grown in DMEM medium containing 10% calf serum. Expression constructs were transfected into cells using Lipofectamine, whereas the control and tTG siRNAs were introduced into cells with Lipofectamine 2000. As indicated, cells were incubated with serum-free medium containing combinations of 0.1 μg/ml EGF, 100 μM MDC, 10 μM T101, 10 μM BFA, and 10 μM Exo1. […]
5×10^5 mitotically arrested (using mitomycin-C) MDAMB231 cells stably expressing control or tTG siRNAs were combined with 5×10^5 NIH3T3 fibroblasts and growth factor-reduced Matrigel (BD Biosciences) to achieve 30% Matrigel in the final solution. […] After a month, the animals were sacrificed and the resulting tumors that formed for each experimental condition were excised and counted. […]

[7] = system: HeLa cervical carcinoma cells; experiment: MV formation in HeLa cells, rhodamine-phalloidin labeling; type: cell-based, human; conditions: serum-starved HeLa cells, EGF stimulation
Procedure: FIG. 2. Quantification of MV production by various cell lines cultured under serum-starved or EGF-stimulated conditions. Cells generating MVs were detected by labeling the samples with rhodamine-conjugated phalloidin. The data shown represents the mean±s.d. from three independent experiments.
FIG. 3. Images of cells from the experiment performed in FIG. 2. Some of the MVs are denoted with arrows.
as §1

## COc1cc2ncnc(Nc3cccc(Cl)c3)c2cc1OC [AG1478]
[1]
  anchorage-independent growth advantage imparted by U87 cell-derived MVs: insensitive

## C[C@H]1CCC/C=C/[C@@H]2C[C@H](O)C[C@H]2[C@H](O)/C=C/C(=O)O1 [BFA, brefelden A]
[2]
  effect on shedding of MVs (flotillin-2 and tTG in isolated MVs): nor was it affected
[3]
  effect on MV formation: not sensitive

## COC(=O)c1ccccc1NC(=O)c1ccc(F)cc1 [ExoI]
[2]
  effect on shedding of MVs (flotillin-2 and tTG in isolated MVs): nor was it affected
[3]
  effect on MV formation: not sensitive

## CN(C)c1cccc2c(S(=O)(=O)NCCCCCN)cccc12 [MDC, monodansylcadaverine]
[4]
  resistance to serum-deprivation-induced apoptosis: ablated
[3]
  effect on MV formation: had no effect
[5]
  crosslinking activity associated with MVs (levels of BPA-labeled casein): greatly diminished

## CO[C@@]12[C@H](COC(N)=O)C3=C(C(=O)C(C)=C(N)C3=O)N1C[C@@H]1N[C@@H]12 [mitomycin-C]
[6]
  ability of MDAMB231 cells to form tumors: inhibited

## epidermal growth factor [EGF, growth factor used to stimulate cells]
[7]
  MV formation: induced
